Measurements reported in the supplement of paper PMC10627819.

How the values were obtained:
Test in all cases: fitness (endpoint OD595 vs no drug) (fraction); higher = more growth
[1] = system: S. aureus Newman
Method in brief: (§1)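 Fitness expresses the optical density reached at the stationary-phase transition as a fraction of the robust mean of no-drug control wells. It is capped at 1. Measurements were OD595 every 30 min for 14 h at 37 °C after inoculation of 384-well plates at OD595 0.01 (30 µl, or 55 µl for S. pneumoniae), minus the first reading.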

[2] = system: S. aureus DSM 20231
Method in brief: as §1

[3] = system: S. pneumoniae D39V
Method in brief: as §1

[4] = system: B. subtilis 168
Method in brief: as §1
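Also: OD595 on entry to stationary phase over no-drug wells; at most 1.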

CC[C@H]1OC(=O)[C@H](C)[C@@H](O[C@H]2C[C@@](C)(OC)[C@@H](O)[C@H](C)O2)[C@H](C)[C@@H](O[C@@H]2O[C@H](C)C[C@H](N(C)C)[C@H]2O)[C@](C)(O)C[C@@H](C)CN(C)[C@H](C)[C@@H](O)[C@]1(C)O [Azithromycin] + CO[C@@]12[C@H](COC(N)=O)C3=C(C(=O)C(C)=C(N)C3=O)N1C[C@@H]1N[C@@H]12 [Mitomycin C]
fitness
Conditions	first compound 0.125 µg/mL	first compound 0.25 µg/mL	first compound 0.5 µg/mL
[1], partner 0.0156 µg/mL	0.719	0.726	0.561
[1], partner 0.0312 µg/mL	0.671	0.638	0.53
[1], partner 0.0625 µg/mL	0.559	0.551	0.365
[2], partner 0.0156 µg/mL	0.674	0.701	0.366
[2], partner 0.0312 µg/mL	0.661	0.664	0.314
[2], partner 0.0625 µg/mL	0.547	0.491	0.171

O=C(O)[C@H]1/C(=C/CO)O[C@@H]2CC(=O)N21 [Clavulanic acid] + CN[C@@H]1[C@H](O)[C@H](NC)[C@H]2O[C@@]3(O)C(=O)C[C@@H](C)O[C@H]3O[C@@H]2[C@H]1O [Spectinomycin]
fitness
Conditions	first compound 0.5 µg/mL	first compound 1 µg/mL	first compound 1.5 µg/mL	first compound 2 µg/mL	first compound 3 µg/mL	first compound 6 µg/mL
[3], partner 4 µg/mL	0.916	0.809	–	0.79	–	–
[3], partner 8 µg/mL	0.852	0.845	–	0.749	–	–
[3], partner 16 µg/mL	0.658	0.621	–	0.447	–	–
[4], partner 2 µg/mL	–	–	0.892	–	0.951	0.832
[4], partner 4 µg/mL	–	–	0.929	–	0.868	0.755
[4], partner 8 µg/mL	–	–	0.934	–	0.867	0.72

fitness, [1], one replicate
Conditions	first compound 0.03125 µg/mL	first compound 0.0625 µg/mL	first compound 0.125 µg/mL
partner 4 µg/mL	0.961	0.922	0.916
partner 8 µg/mL	0.945	0.945	0.958
partner 16 µg/mL	0.92	0.885	0.905

O=C(O)[C@H]1/C(=C/CO)O[C@@H]2CC(=O)N21 [Clavulanic acid] + CC1=C\[C@@H](O)CC(=O)Cc2nc(co2)C(=O)N2CCC=C2C(=O)O[C@H](C(C)C)[C@H](C)/C=C/C(=O)NC\C=C\1 [Virginiamycin M1]
fitness, one replicate
Conditions	first compound 0.03125 µg/mL	first compound 0.0625 µg/mL	first compound 0.125 µg/mL	first compound 0.5 µg/mL	first compound 1 µg/mL	first compound 2 µg/mL
[1], partner 0.0625 µg/mL	0.925	0.984	0.908	–	–	–
[1], partner 0.125 µg/mL	0.917	0.977	0.949	–	–	–
[1], partner 0.25 µg/mL	0.971	≥ 1	0.975	–	–	–
[3], partner 0.15 µg/mL	–	–	–	≥ 1	0.929	0.868
[3], partner 0.3 µg/mL	–	–	–	0.875	0.87	0.802

fitness
Conditions	first compound 0.5 µg/mL	first compound 1 µg/mL	first compound 1.5 µg/mL	first compound 2 µg/mL	first compound 3 µg/mL	first compound 6 µg/mL
[3], partner 0.5 µg/mL	0.991	0.935	–	0.918	–	–
[3], partner 1 µg/mL	≥ 1	0.958	–	0.867	–	–
[3], partner 2 µg/mL	0.957	0.904	–	0.796	–	–
[4], partner 0.0625 µg/mL	–	–	0.935	–	0.877	0.809
[4], partner 0.125 µg/mL	–	–	0.917	–	0.895	0.7
[4], partner 0.25 µg/mL	–	–	0.927	–	0.841	0.822
